Holding throughout (assay): In vitro antibacterial activity, microtitration dilution method (MIC)
What all share (format): cell-based

For assay [1], the system named is Enterobacter cloacae MA 2646. The settings on record: MA2646, read-out: Minimal Inhibitory Concentration (MIC). The text has this: (§1) The compounds of the invention display antibacterial activity when tested by the microtitration dilution method as described in Heifetz, et al, Antimicr. Agents & Chemoth., 6, 124 (1974), which is incorporated herein by reference.
(§2) By use of the above referenced method, the followed minimum inhibitory concentration values (MICs in μg/ml) were obtained for representative compounds of the invention.

A further assay concerns Escherichia coli Vogel. The settings on record: read-out: Minimal Inhibitory Concentration (MIC).
Description: as §1, §2

The subject of assay [2] is Klebsiella pneumoniae MGH-2. The settings on record: MGH2, read-out: Minimal Inhibitory Concentration (MIC).
Description: as §1, §2

For the next assay, the system named is Proteus rettgeri M 1771. The settings on record: Providencia rettgeri, M1771, read-out: Minimal Inhibitory Concentration (MIC).
Description: as §1, §2

For assay [3], the system named is Pseudomonas aeruginosa UI-18. The settings on record: UI18, read-out: Minimal Inhibitory Concentration (MIC).
Description: as §1, §2

Assay [4] has as its system Streptococcus pneumoniae SV-1. The settings on record: SV1, read-out: Minimal Inhibitory Concentration (MIC).
Description: as §1, §2

The subject of assay [5] is Streptococcus pyogenes C-203. The settings on record: C203, read-out: Minimal Inhibitory Concentration (MIC).
Description: as §1, §2

In assay [6] the test system is Staphylococcus aureus H 228. The text has this: (§3) Agents & Chemoth., 6, 124 (1974), which is incorporated herein by reference.
For assay [7], the system named is Staphylococcus aureus UC-76.
Description: as §3

Assay [8] deals with Streptococcus faecalis MGH-2. The settings on record: Enterococcus faecalis.
Description: as §3

The mark [9] stands for this setting: H228, Staphylococcus aureus H 228, read-out: Minimal Inhibitory Concentration (MIC).
Setting [10] is: Staphylococcus aureus, UC76, read-out: Minimal Inhibitory Concentration (MIC).
Setting [11] is: MGH2, Streptococcus faecalis MGH-2, read-out: Minimal Inhibitory Concentration (MIC).

≈ marks a conversion by molar mass, not a printed value. Like-named read-outs stand apart in the source and are kept apart here.

For the compound `CCNCC1CCN(c2cc3c(cc2F)c(=O)c(C(=O)O)cn3NC)C1` (stereo not shown) [Ex. 1, 7-[3-[(Ethylamino)methyl]-1-pyrrolidinyl]-6-fluoro-1-methylamino-1,4-dihydro-4-oxo-3-quinolinecarboxylic Acid], the MIC worked out at 6.3 µg/mL (≈ 17.4 µM) in assay [1]; 12.5 µg/mL (≈ 34.5 µM) with Escherichia coli Vogel; 6.3 µg/mL (≈ 17.4 µM) in assay [2]; 25 µg/mL (≈ 69 µM) with Proteus rettgeri M 1771; 25 µg/mL (≈ 69 µM) in assay [3]; 3.1 µg/mL (≈ 8.55 µM) in [4]. Also, the MIC was found to be 0.4 µg/mL (≈ 1.1 µM) in [5], 12.5 µg/mL (≈ 34.5 µM) in assay [6] (setting [9]), 0.2 µg/mL (≈ 0.552 µM) in assay [7] (setting [10]) and 6.3 µg/mL (≈ 17.4 µM) in assay [8] (setting [11]).
`CNn1cc(C(=O)O)c(=O)c2cc(F)c(N3CCC(N)C3)c(F)c21` (stereo not shown) [Ex. 2, 7-(3-Amino-1-pyrrolidinyl)-6,8-difluoro-1,4-dihydro-1-methylamino-4-oxo-3-quinolinecarboxylic Acid]: the MIC was determined as 0.8 µg/mL (≈ 2.36 µM) in [1]; 0.2 µg/mL (≈ 0.591 µM) in the assay on Escherichia coli Vogel; 0.2 µg/mL (≈ 0.591 µM) in assay [2]; 0.4 µg/mL (≈ 1.18 µM) in the assay on Proteus rettgeri M 1771; 0.2 µg/mL (≈ 0.591 µM) in assay [3]; 6.3 µg/mL (≈ 18.6 µM) in [4]. Besides, the MIC in [5] was found to be 0.8 µg/mL (≈ 2.36 µM); in assay [6] (Staphylococcus aureus, H228, read-out: Minimal Inhibitory Concentration (MIC)), 3.1 µg/mL (≈ 9.16 µM); in assay [7] (UC76, Staphylococcus aureus UC-76, read-out: Minimal Inhibitory Concentration (MIC)), 0.4 µg/mL (≈ 1.18 µM); in [8] (setting [11]) it was 12.5 µg/mL (≈ 36.9 µM).
For `CCNCC1CCN(c2c(F)cc3c(=O)c(C(=O)O)cn(NC)c3c2F)C1` (stereo not shown) [Ex. 3, 7-[3-[(Ethylamino)methyl]-1-pyrrolidinyl]-6,8-difluoro-1,4-dihydro-1-methylamino-4-oxo-3-quinolinecarboxylic acid], the MIC in assay [1] stood at 0.2 µg/mL (≈ 0.526 µM); with Escherichia coli Vogel, 0.2 µg/mL (≈ 0.526 µM); in assay [2], 0.2 µg/mL (≈ 0.526 µM); in the assay on Proteus rettgeri M 1771 it was 1.6 µg/mL (≈ 4.21 µM); in assay [3], 0.8 µg/mL (≈ 2.1 µM); in assay [4], 0.1 µg/mL (≈ 0.263 µM). For the same compound, the MIC in assay [5] came out at 0.2 µg/mL (≈ 0.526 µM); in assay [6] (setting [9]) it was 0.4 µg/mL (≈ 1.05 µM); in assay [7] (setting [10]), 0.2 µg/mL (≈ 0.526 µM); in assay [8] (setting [11]), 0.4 µg/mL (≈ 1.05 µM).
For the compound `CNn1cc(C(=O)O)c(=O)c2cc(F)c(N3CCC(CN)C3)c(F)c21` (stereo not shown) [Ex. 4, 7-[3-(Aminomethyl)-1-pyrrolidinyl]-6,8-difluoro-1,4-dihydro-1-methylamino-4-oxo-3-quinolinecarboxylic acid], the MIC in assay [1] was 1.6 µg/mL (≈ 4.54 µM); in the assay with Escherichia coli Vogel it was 1.6 µg/mL (≈ 4.54 µM); in [2] it was 1.6 µg/mL (≈ 4.54 µM); in the assay on Proteus rettgeri M 1771 it was 1.6 µg/mL (≈ 4.54 µM); in assay [3], 1.6 µg/mL (≈ 4.54 µM); in assay [4], 0.8 µg/mL (≈ 2.27 µM). The MIC came to 0.2 µg/mL (≈ 0.568 µM) in assay [5]; 1.6 µg/mL (≈ 4.54 µM) in assay [6] (setting [9]); 0.2 µg/mL (≈ 0.568 µM) in [7] (setting [10]); 0.8 µg/mL (≈ 2.27 µM) in assay [8] (MGH2, read-out: Minimal Inhibitory Concentration (MIC)).
